{"source": "patent US20240277700A1", "about": "“COMPOSITIONS AND METHODS FOR TREATING AND PREVENTING INTERSTITIAL CYSTITIS” (Hista RX LLC, priority 2021, published 2024)", "key": {"[1]": {"tested_on": "patient with interstitial cystitis", "experiment": "Example 2: case report, patient with chronic interstitial cystitis and IBS-diarrhea", "conditions": "person; before the combination"}, "patients with IC": {"tested_on": "patients with IC", "conditions": "cited from earlier work"}, "[2]": {"tested_on": "patient with painful bladder syndrome", "experiment": "Example 3: case report, patient with chronic painful bladder syndrome", "assay_type": "in vivo, human", "conditions": "person; prior treatment without the combination"}}, "data": [{"molecule": "COc1ccc2nc([S@@+]([O-])Cc3ncc(C)c(OC)c3C)[nH]c2c1", "note": "[Esomeprazole]", "values": [{"measurement": "resolution of urologic and/or gastrointestinal conditions by previous medications", "setting": "[1]", "value": "without resolution"}]}, {"molecule": "OCCOCCN1CCN(C(c2ccccc2)c2ccc(Cl)cc2)CC1", "note": "(centres unmarked) [Hydroxyzine]", "values": [{"measurement": "benefit in the treatment of IC", "setting": "patients with IC; monotherapy", "value": "some limited benefit"}, {"measurement": "symptomatic relief by prior treatment", "setting": "[2]", "value": "insufficient"}]}, {"molecule": "CN/C(=N/CCSCc1nc[nH]c1C)NC#N", "note": "[cimetidine]", "values": [{"measurement": "symptomatic relief of IC", "setting": "patients with IC; monotherapy 300 mg bid (600 mg daily) for one month, case series of 9 patients", "value": "effective"}]}, {"molecule": "Sucralfate", "values": [{"measurement": "resolution of urologic and/or gastrointestinal conditions by previous medications", "setting": "[1]", "value": "without resolution"}]}]}
